From US7198651B2, “Method of effecting a reversible color change of dyed hair” (Kao Corporation, priority 2003, dated 2007)

Assay: Measurement of pKa value of the dyes (spectrophotometric titration)
Format: physicochemical
Conditions: DMF/water (1/1), titration from pH 2 with NaOH, UV-vis inflection point
Description: The pKa values of the dyes can be determined by the following method. The dye is dissolved in a solution of a DMF/water (1/1) volume ratio to a final concentration of 2×10^−5 mol/l. After adjusting the resulting solution to pH 2, using 1.0 mol/l hydrochloric acid, the solution is titrated with aqueous 1.0 mol/l sodium hydroxide solution. Recording the change of the visible ultra-violet absorption spectrum, the inflection point can be determined by regression analysis.
With CCSc1nnc(N=Nc2ccc(O)c3cccc(NS(C)(=O)=O)c23)s1 [Dye 8] the pKa was 4.4. Compound NS(=O)(=O)c1ccc2nsc(N=Nc3cc(Cl)c(O)cc3Cl)c2c1 [Dye 13] has a pKa of 4.7. Compound CCSc1nsc(/N=N/c2cc(Cl)c(O)cc2Cl)n1 [Dye 26, reference compound] has a pKa of 3.5. Cc1nsc(/N=N/c2cc(Cl)c(O)cc2Cl)n1 [Dye 30, reference compound] gave a pKa of 3.8. Compound CC(=O)Nc1cc(/N=N/c2nc3ccccc3s2)ccc1O [Dye 6] has a pKa of 6.2. For Oc1ccc(/N=N/c2nc3ccccc3s2)cc1Cl [Dye 7], the pKa was 5.9. COCCOc1ccc(N=NC2C(=O)N(c3ccccc3)N=C2C(N)=O)cc1S(N)(=O)=O (stereo not drawn) [Dye 21] gave a pKa of 6.4. Compound CC(=O)Nc1cc(/N=N/c2nncs2)ccc1O [Dye 1] has a pKa of 6.0. In the case of CCSc1nnc(/N=N/c2c(C(C)(C)C)nn3nc(C(C)C)[nH]c23)s1 [Dye 35, reference compound], the pKa is reported as 4.7. For CCC(=O)Nc1cc(/N=N/c2nc(C)ns2)cc(Cl)c1O [Dye 29, reference compound], the pKa was 3.3. In the case of CS(=O)(=O)c1ccc(/N=N/c2ccc(O)c3ccccc23)c(C#N)c1 [Dye 3], the pKa is reported as 6.5. For CCc1nn2c(-c3ccc(OC)c(NS(C)(=O)=O)c3)n[nH]c2c1/N=N/c1nc(C(C)C)no1 [Dye 36, reference compound], the pKa was 5.2. Cc1nn2nc(C(C)(C)C)c(/N=N/c3cc(Cl)c(S(N)(=O)=O)cc3Cl)c2[nH]1 [Dye 24] showed a pKa of 5.9. Compound CC(=O)Nc1cc(N=Nc2nc(C)ns2)ccc1O [Dye 32, reference compound] has a pKa of 5.2. For Cc1nsc(/N=N/c2ccc(O)c(Cl)c2)n1 [Dye 31, reference compound], the pKa was 5.0. Compound N#CC(/N=N/c1ccc(S(N)(=O)=O)cc1)C(=O)c1ccccc1 (stereo not drawn) [Dye 23] has a pKa of 5.8. In the case of O=C(Nc1cc(/N=N/c2nc(-c3ccccc3)no2)c2ccccc2c1O)c1ccncc1 [Dye 2], the pKa is reported as 5.5. For CCC(=O)Nc1cc(N=Nc2snc3ccc(S(N)(=O)=O)cc23)cc(Cl)c1O [Dye 12], the pKa was 4.0. Compound CCSc1nsc(/N=N/c2cc(Cl)c(O)c(NC(=O)CC)c2)n1 [Dye 25, reference compound] has a pKa of 3.0. CS(=O)(=O)Nc1cccc2c(O)ccc(N=Nc3nc4ccccc4s3)c12 [Dye 9] showed a pKa of 6.1. CSc1nnc(/N=N/c2ccc(O)c(NC(C)=O)c2)s1 [Dye 5] gave a pKa of 6.1. For CNS(=O)(=O)c1ccc2nsc(/N=N/c3cc(NC(C)=O)c(O)c(NC(C)=O)c3)c2c1 [Dye 39, reference compound], the pKa was 3.9. With CCSc1nnc(/N=N/c2c(C(C)(C)C)nn3nc(C)[nH]c23)s1 [Dye 22] the pKa was 5.5.

Same assay, conditions: DMF/water (1/1 v/v) solution, titration from pH 2 with NaOH, UV-vis inflection point, read-out: pKa
CS(=O)(=O)Nc1cccc2c(O)ccc(/N=N/c3snc4ccc(S(N)(=O)=O)cc34)c12 [Dye 10] gave a pKa of 5. For CC(=O)Nc1cc(/N=N/c2snc3ccc(S(N)(=O)=O)cc23)c(Cl)c(Cl)c1O [Dye 27, reference compound], the pKa was 3. Compound CC(=O)Nc1cc(/N=N/c2ccc(S(C)(=O)=O)cc2C#N)c2ccccc2c1O [Dye 4] has a pKa of 7. Work on CCC(=O)Nc1cc(/N=N/c2nccs2)cc(Cl)c1O [Dye 28, reference compound] yielded a pKa of 4.8.
